In PMC2442655, “Structure-Activity Relationship and Substrate-Dependent Phenomena in Effects of Ginsenosides on Activities of Drug-Metabolizing P450 Enzymes” (PLoS ONE, 2008):
Like-named read-outs stand apart in the source and are kept apart here.

How the values were obtained:
[1] = target: T1, CYP3A4 (Homo sapiens, UniProt P08684); assay: Nifedipine oxidation in human liver microsomes; details: for Effect on NF metabolism: 1-50 µM; for Effect on NF in vitro metabolism: low concentrations (1∼10 µM)
T1 sequence (P08684 whole entry): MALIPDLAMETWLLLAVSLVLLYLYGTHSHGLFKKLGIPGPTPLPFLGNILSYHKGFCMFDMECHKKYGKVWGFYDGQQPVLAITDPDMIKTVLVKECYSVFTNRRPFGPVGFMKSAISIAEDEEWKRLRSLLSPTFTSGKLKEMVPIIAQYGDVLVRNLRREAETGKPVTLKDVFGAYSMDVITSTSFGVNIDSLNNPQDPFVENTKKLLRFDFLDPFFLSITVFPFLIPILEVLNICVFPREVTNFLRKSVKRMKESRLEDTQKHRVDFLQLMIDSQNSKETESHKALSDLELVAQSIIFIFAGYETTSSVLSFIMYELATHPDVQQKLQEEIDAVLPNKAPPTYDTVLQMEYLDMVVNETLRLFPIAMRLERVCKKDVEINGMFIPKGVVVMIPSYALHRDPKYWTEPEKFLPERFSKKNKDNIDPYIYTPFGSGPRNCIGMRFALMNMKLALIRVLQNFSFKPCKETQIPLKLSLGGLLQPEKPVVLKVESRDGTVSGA
Experimental: (§1) The effects of the ginsenosides and sapogenins on the in vitro metabolism of CBZ were evaluated using HLM. […] Vehicle control samples were treated with methanol at a final concentration of 0.5% instead of test compounds. The reaction was initiated by adding 60 µL pre-warmed NADPH-regenerating system (50 µL BD solution A and 10 µL BD solution B). After incubation at 37°C for 30 min, the reaction system was quenched by adding 0.4 ml ice-cold acetonitrile, which was mixed well and centrifuged at 4°C (10,000 g, 10 min). The supernatant (0.4 ml) was collected, mixed with 0.8 ml acetonitrile and then centrifuged at 4°C (10,000 g, 10 min). The supernatant (30 µL) was diluted with 970 µL ddH2O and 50 µL of the mixture was injected onto the high performance liquid chromatography/tandem mass spectrometry (HPLC-MS-MS) system for analysis. […] Microsomal studies using NF as the substrate were conducted as described above for CBZ with several modifications. The NF concentration was 1 µM. The supernatant (0.4 ml) of the reaction system after quenching and centrifugation was also combined with 0.8 ml acetonitrile and centrifuged, and 10 µL of the resultant supernatant was directly injected onto the HPLC-MS-MS system for analysis.
(§2) The HPLC was performed using an Agilent 1200 system (Palo Alto, CA, USA) equipped with a binary pump and an auto-sampler. […] The elution lasted for 8 min.
(§3) The MS analysis was performed on a 4000Q Trap™ triple quadrupole mass spectrometer (Applied Biosystems/MDS Sciex Instruments, Concord, Ontario, Canada) equipped with a Turbo V ion source (TurboIonSpray™ probe was used), a Dell™ computer, and Analyst™ software. Electrospray ionization in the positive mode was employed to analyze CBZ-E and ONF, respectively. The compound parameters for CBZ-E and ONF were: declustering potential, 65 and 95 units, and collision energy, 39 and 40 units, respectively. The ion source parameters were as follows: curtain gas, 15 units; collision gas, medium; ion spray voltage, 4000 and 5000 V, respectively; temperature, 650 and 350°C, respectively; ion source gas 1, 60.0 and 65.0 units, respectively; ion source gas 2, 45.0 units.

[2] = target: T1, CYP3A4; assay: Carbamazepine 10,11-epoxidation in human liver microsomes; details: for Effect on in vitro CBZ metabolism: 1-50 µM
Experimental: as §1, §2, §3

[3] = target: CYP2D6 (Homo sapiens, UniProt P10635); assay: Vivid CYP2D6 blue fluorescent assay; details: for inhibition at 30 min, 50 µM: human
Chain of CYP2D6 (P10635 whole entry): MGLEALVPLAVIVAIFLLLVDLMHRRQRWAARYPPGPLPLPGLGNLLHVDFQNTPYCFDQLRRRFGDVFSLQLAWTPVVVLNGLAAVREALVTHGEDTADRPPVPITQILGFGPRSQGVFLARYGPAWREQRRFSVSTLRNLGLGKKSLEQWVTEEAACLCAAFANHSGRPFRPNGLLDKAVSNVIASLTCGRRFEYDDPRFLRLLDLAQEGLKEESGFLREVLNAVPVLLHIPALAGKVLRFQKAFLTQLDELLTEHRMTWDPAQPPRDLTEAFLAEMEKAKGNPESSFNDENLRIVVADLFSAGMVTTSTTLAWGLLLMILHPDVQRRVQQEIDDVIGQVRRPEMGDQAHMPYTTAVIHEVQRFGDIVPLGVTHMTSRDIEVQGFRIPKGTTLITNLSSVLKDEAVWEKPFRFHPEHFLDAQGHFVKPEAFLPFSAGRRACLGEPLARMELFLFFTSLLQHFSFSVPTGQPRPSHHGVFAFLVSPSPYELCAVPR
Experimental: (§4) The inhibition of the catalytic activities of cDNA-expressed human P450 enzymes by ginsenosides was determined using Vivid® P450 screening kits (CYP1A2 blue, CYP2C9 red, CYP2C19 blue, CYP2D6 blue, CYP3A4 green and red) according to the manufacturer's instructions (Invitrogen Corporation; Carlsbad, CA, USA).
(§5) In brief, the assays were carried out in Costar® black-wall 96-well plates with ultra thin clear bottoms (Corning Inc, Corning, NY, USA) in a kinetic assay mode. Stock solutions (10 mM) of ginsenosides in methanol were prepared and diluted to various concentrations (2.5× 100, 50, 10, 5, 1 µM). For each well, 40 µL of solution of test compounds or vehicle was incubated with 50 µL pre-mixture (mixture of BACULOSOMES® reagent, regeneration system and reaction buffer) at 37°C for 20 min. The reaction was initiated by adding 10 µL of a mixture of substrate and NADP^+ per well with a respective concentration of Vivid® substrate (Table 1). The plate was read immediately for fluorescence changes every 0.5 min at 37°C for 30 min using a FlexStation II384 fluorometric plate reader (Molecular Devices, Sunnyvale, CA, USA) with respective excitation and emission wavelengths for each P450 enzyme (Table 1). The final methanol volume in the reaction was less than or equal to 1%.

[4] = target: T1, CYP3A4; assay: Vivid CYP3A4 green fluorescent assay
Experimental: as §4, §5

[5] = target: CYP2C19 (Homo sapiens, UniProt P33261); assay: Vivid CYP2C19 blue fluorescent assay
Chain of CYP2C19 (P33261 whole entry): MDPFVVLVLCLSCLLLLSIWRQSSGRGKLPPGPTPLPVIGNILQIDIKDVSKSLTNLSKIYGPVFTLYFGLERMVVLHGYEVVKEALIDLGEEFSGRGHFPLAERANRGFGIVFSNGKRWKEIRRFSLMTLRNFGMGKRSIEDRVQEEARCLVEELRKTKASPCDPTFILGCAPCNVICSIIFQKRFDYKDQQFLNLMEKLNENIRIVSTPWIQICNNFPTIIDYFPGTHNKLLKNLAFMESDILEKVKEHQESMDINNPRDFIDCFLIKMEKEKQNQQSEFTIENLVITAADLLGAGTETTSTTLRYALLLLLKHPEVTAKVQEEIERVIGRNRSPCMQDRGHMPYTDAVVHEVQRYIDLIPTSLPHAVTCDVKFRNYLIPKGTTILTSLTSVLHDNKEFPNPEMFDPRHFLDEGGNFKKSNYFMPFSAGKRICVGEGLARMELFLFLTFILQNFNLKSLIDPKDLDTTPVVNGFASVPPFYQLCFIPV
Experimental: as §4, §5

[6] = target: T1, CYP3A4; assay: Vivid CYP3A4 red fluorescent assay; details: for Effect on CYP3A4 catalytic activity, Vivid red assay: red substrate
Experimental: as §4, §5

[7] = target: T2, CYP1A2 (Homo sapiens, UniProt P05177); assay: Vivid CYP1A2 blue fluorescent assay; details: for IC50: IC50 CYP1A2 blue, cDNA-expressed enzyme, Vivid blue substrate 3 µM; for inhibition at 30 min, 50 µM: human
T2 sequence (P05177 1-516): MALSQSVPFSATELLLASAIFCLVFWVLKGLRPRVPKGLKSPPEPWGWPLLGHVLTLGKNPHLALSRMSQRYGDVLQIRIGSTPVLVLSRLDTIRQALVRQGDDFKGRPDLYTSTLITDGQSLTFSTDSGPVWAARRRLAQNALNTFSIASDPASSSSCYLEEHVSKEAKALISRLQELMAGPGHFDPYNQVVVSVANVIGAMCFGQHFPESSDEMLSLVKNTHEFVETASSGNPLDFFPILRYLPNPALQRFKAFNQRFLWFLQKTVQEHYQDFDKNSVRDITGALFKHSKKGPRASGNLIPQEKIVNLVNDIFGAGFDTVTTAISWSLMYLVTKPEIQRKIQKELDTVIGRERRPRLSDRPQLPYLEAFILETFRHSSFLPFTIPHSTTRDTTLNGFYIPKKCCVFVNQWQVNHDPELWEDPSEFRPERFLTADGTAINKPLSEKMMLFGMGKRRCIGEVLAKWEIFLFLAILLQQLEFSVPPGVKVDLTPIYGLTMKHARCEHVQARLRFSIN
Experimental: as §4, §5

[8] = target: T3, CYP2C9 (Homo sapiens, UniProt P11712); assay: Vivid CYP2C9 red fluorescent assay; type: in vitro ADME
T3 construct: purchased Invitrogen Corporation
T3 sequence (P11712 whole entry): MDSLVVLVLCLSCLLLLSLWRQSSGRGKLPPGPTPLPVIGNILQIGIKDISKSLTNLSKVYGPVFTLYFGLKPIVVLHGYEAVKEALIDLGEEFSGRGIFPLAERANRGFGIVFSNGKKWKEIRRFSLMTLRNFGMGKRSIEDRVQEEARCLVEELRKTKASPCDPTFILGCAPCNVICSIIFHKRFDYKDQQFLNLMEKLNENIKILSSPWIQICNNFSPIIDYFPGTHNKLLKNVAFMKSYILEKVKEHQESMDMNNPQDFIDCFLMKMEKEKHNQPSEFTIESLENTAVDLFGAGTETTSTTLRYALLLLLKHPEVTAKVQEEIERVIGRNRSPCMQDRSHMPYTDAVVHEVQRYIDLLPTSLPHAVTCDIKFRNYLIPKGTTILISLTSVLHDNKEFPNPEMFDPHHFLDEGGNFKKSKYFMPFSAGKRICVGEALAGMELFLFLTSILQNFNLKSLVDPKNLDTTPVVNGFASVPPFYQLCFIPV
Experimental: In brief, the assays were carried out in Costar® black-wall 96-well plates with ultra thin clear bottoms (Corning Inc, Corning, NY, USA) in a kinetic assay mode. […] For each well, 40 µL of solution of test compounds or vehicle was incubated with 50 µL pre-mixture (mixture of BACULOSOMES® reagent, regeneration system and reaction buffer) at 37°C for 20 min. […] The final methanol volume in the reaction was less than or equal to 1%.

[9] = tested on: CYP3A4; parameters: method as in PMID 15133536; details: read-out: IC50 CYP3A4-mediated testosterone 6β-hydroxylation; cited from earlier work
[10] = recombinant (cDNA-expressed) CYP2D6 BACULOSOMES, probe Vivid blue substrate 10 µM
[11] = recombinant (cDNA-expressed) CYP1A2 BACULOSOMES, probe Vivid blue substrate 3 µM
[12] = cDNA-expressed enzyme, Vivid red substrate 2 µM, maximum concentration 50 µM, read-out: IC50 CYP2C9 red

SMILES | Effect on NF metabolism [1] | Effect on in vitro CBZ metabolism [2] | IC50 [3] [µM] | inhibition at 30 min, 50 µM [3, 10] [%] | IC50 [4] [µM] | IC50 [5] [µM] | Effect on CYP3A4 catalytic activity, Vivid red assay [6] | IC50 [7] [µM] | inhibition at 30 min, 50 µM [7, 11] [%] | IC50 [8, 12] [µM] | IC50 [6] [µM] | Effect on NF in vitro metabolism [1] | other results
O=c1cc(-c2ccccc2)oc2c1ccc1ccccc12 [α-naphthoflavone, reference compound] |  |  |  |  |  |  |  |  |  |  |  |  | Effect on in vitro NF metabolism ([1]; 10 µM): did not significantly alter; Increase of CBZ metabolism vs vehicle control ([2]; 10 µM): 772%
CC(C)(O)CCC[C@@](C)(O)[C@H]1CC[C@]2(C)[C@@H]1[C@H](O)C[C@@H]1[C@@]3(C)CC[C@H](O)C(C)(C)[C@@H]3CC[C@]12C [20(R)-25-OH-PPD, 20(R)-dammarane-3β, 12β, 20, 25-tetrol] | negligible | substantially activated | > 50 | 31.8 | 25.6 | 69.1 | activated the catalytic activity of CYP3A4 | > 100 | 22.8 | 7.6 |  |  | Activation of CYP3A4, Vivid red assay (fold) ([6]; 10 µM): about two-fold
COC(C)(C)CCC[C@](C)(O)[C@H]1CC[C@]2(C)[C@@H]1[C@H](O)C[C@@H]1[C@@]3(C)CC[C@H](O)C(C)(C)[C@@H]3CC[C@]12C [25-OCH3-PPD, 20(S)-25-methoxyl-dammarane-3β, 12β, 20-triol] | negligible | substantially activated | > 50 | 12.6 | 17.7 | 26.5 |  | > 100 | 4.8 | 7.5 | > 100 |  | Activation of CYP3A4, Vivid red assay ([6]; 10 µM): about 20%; Effect on CYP3A4, Vivid red assay ([6]; high concentrations): weakly inhibited; inhibition at 30 min, 50 µM ([6]; human, recombinant (cDNA-expressed) CYP3A4 BACULOSOMES, probe Vivid red substrate 3 µM): 25.4%
CC(C)=CCC[C@](C)(O)[C@H]1CC[C@]2(C)[C@@H]1[C@H](O)C[C@@H]1[C@@]3(C)CC[C@H](O)C(C)(C)[C@@H]3CC[C@]12C [PPD, protopanaxadiol] |  | substantially activated | > 50 | 25.9 | 9.3 | 52.6 | inhibited CYP3A4 in a dose-dependent manner | 86.6 |  | 8 | 43.1 | weak activation effect | Activation of CBZ metabolism (fold) ([2]; 10 µM): about five-fold
CC(C)=CCC[C@](C)(O[C@@H]1O[C@H](CO)[C@@H](O)[C@H](O)[C@H]1O)[C@H]1CC[C@]2(C)[C@@H]1[C@H](O)C[C@@H]1[C@@]3(C)CC[C@H](O[C@@H]4O[C@H](CO)[C@@H](O)[C@H](O)[C@H]4O[C@@H]4O[C@H](CO)[C@@H](O)[C@H](O)[C@H]4O)C(C)(C)[C@@H]3CC[C@]12C [Rd] |  |  | > 50 | 18.1 | > 100 | > 100 |  | > 100 | 38.3 | > 50 | 72.7 |  | IC50 [9]: 62 µM; inhibition at 30 min, 50 µM ([4]; human, recombinant (cDNA-expressed) CYP3A4 BACULOSOMES, probe Vivid green substrate 2 µM): 12.6%; inhibition at 30 min, 50 µM ([5]; human, recombinant (cDNA-expressed) CYP2C19 BACULOSOMES, probe Vivid blue substrate 10 µM): 27.7%; inhibition at 30 min, 50 µM ([8]; human, recombinant (cDNA-expressed) CYP2C9 BACULOSOMES, probe Vivid red substrate 2 µM): 34.8%
CC(C)=CCC[C@](C)(O)[C@H]1CC[C@]2(C)[C@@H]1[C@H](O)C[C@@H]1[C@@]3(C)CC[C@H](O[C@@H]4O[C@H](CO)[C@@H](O)[C@H](O)[C@H]4O)C(C)(C)[C@@H]3CC[C@]12C [Rh2] |  | did not significantly alter | > 50 |  | 47 | 49.9 | inhibited CYP3A4 in a dose-dependent manner | > 100 |  |  | 9.8 | weak activation effect | Effect on CYP3A4-catalyzed NF oxidation ([1]; high concentration (50 µM)): weakly inhibited; inhibition at 30 min, 50 µM [3]: 20.3%; inhibition at 30 min, 50 µM [7]: 39.4%; IC50 [8]: 30.9 µM
